From patent publication US11912787B2, “Peptide for skin aging prevention and wrinkle reduction, and composition comprising same” (DERMAFIRM, INC., priority 2019, dated 2024)
Like-named read-outs stand apart in the source and are kept apart here. Residues, ends and D or L forms follow the SMILES beside them. *: point of attachment. Palmitoyl = CCCCCCCCCCCCCCCC(=O)*

System: Fibroblasts
Test: MTT cytotoxicity assay
Format: cell-based
Method: In order to examine the cytotoxicity of the novel peptides (GHK-R4 (SEQ ID NO.: 3) and Pal-GHK-R4 (SEQ ID NO.: 4)) according to the Examples of the present invention, MTT assay was performed. As a control, GHK-acetate was used. Fibroblasts were treated with various concentrations of each of the control and the novel peptides, and after 24 hours, treated with MTT reagent. Next, the absorbance was measured, and the viability of the cells was calculated based on the absorbance.

| Molecule | IC30 (cell viability, MTT) (fibroblasts, 24 hours treatment) | IC30 (cell viability, MTT) |
| --- | --- | --- |
| H-GHKRRRR-OH [GHK-R4, H-GlyHisLys-ArgArgArgArg-OH] | ~5320 µM | – |
| NCCCC[C@H](NC(=O)[C@H](Cc1cnc[nH]1)NC(=O)CN)C(=O)O [GHK-acetate, glycine-histidyl-lysine tripeptide, reference compound] (H-Gly-His-Lys-OH) | – | about 31.71 mM |
| CCCCCCCCCCCCCCCC(=O)NCC(=O)N[C@@H](Cc1c[nH]cn1)C(=O)N[C@@H](CCCCN)C(=O)N[C@@H](CCCNC(=N)N)C(=O)N[C@@H](CCCNC(=N)N)C(=O)N[C@@H](CCCNC(=N)N)C(=O)N[C@@H](CCCNC(=N)N)C(=O)O [Pal-GHK-R4, Pal-GlyHisLys-ArgArgArgArg-OH] (Palmitoyl-GHKRRRR-OH) | – | ~8.70 µM |
